Read-outs that look alike come from different tables or passages of the source.
Tests used:
[1] = molecular target: T1, CYP17 (human testicular microsome) (Homo sapiens, UniProt P05093); assay: CYP17 enzymatic assay (IC50) (Biological Example 4); type: biochemical
T1 construct: using microsomal fraction from human testis (Celsis Cat #S00110) as the enzyme source; tissue Celsis S00110; host or cells: human testis microsomal fraction
T1 sequence (P05093 1-508): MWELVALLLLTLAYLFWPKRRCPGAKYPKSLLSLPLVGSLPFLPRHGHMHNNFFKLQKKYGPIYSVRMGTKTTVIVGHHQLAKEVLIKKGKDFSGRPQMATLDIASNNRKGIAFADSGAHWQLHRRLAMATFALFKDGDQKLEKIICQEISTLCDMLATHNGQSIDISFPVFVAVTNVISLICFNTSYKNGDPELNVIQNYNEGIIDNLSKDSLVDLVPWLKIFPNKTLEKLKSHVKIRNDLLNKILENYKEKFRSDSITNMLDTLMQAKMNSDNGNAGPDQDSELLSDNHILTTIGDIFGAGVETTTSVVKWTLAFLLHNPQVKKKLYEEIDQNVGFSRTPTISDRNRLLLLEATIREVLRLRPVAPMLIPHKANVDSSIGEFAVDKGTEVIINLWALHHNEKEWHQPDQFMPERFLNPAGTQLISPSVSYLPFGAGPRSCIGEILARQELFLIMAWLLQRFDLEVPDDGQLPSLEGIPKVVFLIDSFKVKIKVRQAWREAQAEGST
Protocol: The assays were performed in 96-well plates. Typical assays were carried out in total 100 μL volume that included test compounds at designated concentrations, 1× reaction buffer, 0.5 mM NADPH, 1 μM 17α-hydroxypregnenolone, and 2.5 μL of diluted human testicular microsome (Celsis. Cat #S00110). Reaction without test compound served as positive control. Reactions were allowed to incubate at 37° C. for 90 minutes with gentle shaking. The reaction was stopped by directly applying the enzymatic reaction mixture to ELISA plate for evaluation of DHEA concentration according to manufacturer's protocol (IBL America). A standard curve (OD450 vs. DHEA concentration) was generated using purified DHEA.

[2] = molecular target: T1, CYP17 (human testicular microsome); assay: CYP17 enzymatic assay (% inhibition at 10 nM), version 1 (Biological Example 5); type: biochemical; details: 10 nM compound, DHEA by ELISA, read-out: Biological Example No. 5: CYP17 percent inhibition at 10 nM (version 1)
Protocol: The assays were performed in 96-well plates. Typical assays were carried out in total 100 μL volume that included test compounds at 10 nM concentration, 1× reaction buffer, 0.5 mM NADPH, 1 μM 17α-hydroxypregnenolone, and 2.5 μL of diluted human testicular microsome (Celsis. Cat #S00110). Reaction without test compound served as positive control. Reactions were allowed to incubate at 37° C. for 90 minutes with gentle shaking. The reaction was stopped by directly applying the enzymatic reaction mixture to ELISA plate for evaluation of DHEA concentration according to manufacturer's protocol (IBL America). A standard curve (OD450 vs. DHEA concentration) was generated using purified DHEA. […] Percent inhibition (inhibition %) of the compound was calculated using normalized DHEA concentration based on following formula: 100-([DHEA] of compound/[DHEA] of positive control *100).

[3] = Human liver microsome stability assay (Biological Example 8b); details: liver microsomes, pH 7.4
Protocol: The reaction was started with addition of excess NADPH (5 mg/mL, 15 μL in 0.1 M potassium phosphate buffer, 1.0 mM EDTA, pH 7.4), the total volume is 45 μL (compound final concentration was 1 μM). […] 50 μL of the supernatant was transferred from each well into a 96-well sample plate containing 50 μL of ultra-pure water (Millipore) for LC-MS/MS analysis.

[4] = molecular target: T1, CYP17 (human testicular microsome); assay: CYP17 enzymatic assay (% inhibition at 1 nM) (Biological Example 12); type: biochemical; details: compound at 1 nM
[5] = human testicular microsome, DHEA by ELISA, read-out: Biological Example No. 4: CYP17 enzymatic assay IC50
[6] = human testicular microsome, read-out: CYP17 enzymatic assay IC50 (Biological Example No. 4)
[7] = read-out: CYP17 enzymatic assay % inhibition at 1 nM (Biological Example No. 12)
[8] = human testicular microsome, read-out: Biological Example No. 4: CYP17 enzymatic assay IC50
[9] = read-out: Biological Example No. 12: CYP17 enzymatic assay % inhibition at 1 nM

SMILES | IC50 [1, 5] [nM] | inhibition at 0.01 µM [2] [%] | half-life at 1 μM [3] [min] | IC50 [1, 6] [nM] | inhibition at 0.001 µM [4, 7] [%] | IC50 [1] [nM] | IC50 [1, 8] [nM] | inhibition at 0.001 µM [4, 9] [%]
C[C@]12CCCCC1C(O)C[C@@H]1[C@@H]2CC[C@]2(C)C(n3ccnc3)=CC[C@@H]12 (stereo partly drawn) [Compound 85, (10R,13S)-17-(1H-imidazol-1-yl)-10,13-dimethyl-2,3,4,5,6,7,8,9,10,11,12,13,14,15-tetradecahydro-1H-cyclopenta[a]phenanthren-6-ol] | < 11 | 50 to 80 | 1 to 50 |  |  |  |  | 
C[C@]12CCC(=O)CCC1=CCC1[C@@H]2CC[C@]2(C)C(n3ccnc3)=CC[C@@H]12 (stereo partly drawn) [Compound 106, (3aS,10aR,10bS,12aS)-1-(1H-imidazol-1-yl)-10a,12a-dimethyl-3,3a,3b,4,6,7,10,10a,10b,11,12,12a-dodecahydrocyclohepta[a]cyclopenta[f]naphthalen-8(9H)-one] | < 11 | > 80 | 1 to 50 |  |  |  |  | 
C[C@]12CC[C@H]3[C@@H](CC[C@H]4C[C@@H](O)CC[C@@]43C)C1=CC=C2c1cccnc1 [Compound 163, (5S,8R,9S,10S,13S)-10,13-dimethyl-17-(pyridin-3-yl)-2,3,4,5,6,7,8,9,10,11,12,13-dodecahydro-1H-cyclopenta[a]phenanthren-3-ol] | < 11 | > 80 | > 50 |  |  |  |  | 
C[C@]12CC[C@@H](NC(=O)C3CC3)CC1CCC1C2CC[C@]2(C)C(c3cccnc3)=CCC12 (stereo partly drawn) [Compound 220, N-((3R,10S,13S)-10,13-dimethyl-17-(pyridin-3-yl)-2,3,4,5,6,7,8,9,10,11,12,13,14,15-tetradecahydro-1H-cyclopenta[a]phenanthren-3-yl)cyclopropanecarboxamide] |  |  | 1 to 50 | < 11 | > 50 |  |  | 
C[C@]12CC[C@@H](NC(=O)C3CC3)CC1=CCC1C2CC[C@]2(C)C(c3cccnc3)=CCC12 (stereo partly drawn) [Compound 224, N-((3R,10R,13S)-10,13-dimethyl-17-(pyridin-3-yl)-2,3,4,7,8,9,10,11,12,13,14,15-dodecahydro-1H-cyclopenta[a]phenanthren-3-yl)cyclopropanecarboxamide] |  |  | 1 to 50 | < 11 | > 50 |  |  | 
COc1cncc(C2=CC[C@H]3[C@@H]4CC=C5C[C@H](NC(=O)C6CC6)CC[C@]5(C)[C@H]4CC[C@]23C)c1 [Compound 230, N-((3R,10R,13S)-17-(5-methoxypyridin-3-yl)-10,13-dimethyl-2,3,4,7,8,9,10,11,12,13,14,15-dodecahydro-1H-cyclopenta[a]phenanthren-3-yl)cyclopropanecarboxamide] |  |  | 1 to 50 | < 11 | > 50 |  |  | 
CCCC(=O)N[C@@H]1CC[C@@]2(C)C(=CC[C@@H]3[C@@H]2CC[C@]2(C)C(c4cccnc4)=CC[C@@H]32)C1 [Compound 235, N-((3R,10R,13S)-10,13-dimethyl-17-(pyridin-3-yl)-2,3,4,7,8,9,10,11,12,13,14,15-dodecahydro-1H-cyclopenta[a]phenanthren-3-yl)butyramide] |  |  | 1 to 50 | < 11 | > 50 |  |  | 
C[C@]12CCC(NC(=O)C3CCC3)CC1=CCC1C2CC[C@]2(C)C(n3ccnc3)=CCC12 (stereo partly drawn) [Compound 240, N-((10R,13S)-17-(1H-imidazol-1-yl)-10,13-dimethyl-2,3,4,7,8,9,10,11,12,13,14,15-dodecahydro-1H-cyclopenta[a]phenanthren-3-yl)cyclobutanecarboxamide] |  |  | 1 to 50 | < 11 | > 50 |  |  | 
C[C@]1(O)CC[C@@]2(C)C(CCC3C2CC[C@]2(C)C(c4cccnc4)=CCC32)C1 (stereo partly drawn) [Compound 254, (3S,10S,13S)-3,10,13-trimethyl-17-(pyridin-3-yl)-2,3,4,5,6,7,8,9,10,11,12,13,14,15-tetradecahydro-1H-cyclopenta[a]phenanthren-3-ol] |  |  | 1 to 50 |  | > 50 | < 11 |  | 
C[C@]1(O)CC[C@@]2(C)C(CCC3C4=CC=C(c5cccnc5)[C@@]4(C)CCC32)C1 (stereo partly drawn) [Compound 259, (3S,10S,13S)-3,10,13-trimethyl-17-(pyridin-3-yl)-2,3,4,5,6,7,8,9,10,11,12,13-dodecahydro-1H-cyclopenta[a]phenanthren-3-ol] |  |  | 1 to 50 |  | 10 to 50 | < 11 |  | 
C[C@]12CC[C@H](O)CC1=CCC1C2CC[C@]2(C)C(c3cncc(F)c3)=CCC12 (stereo partly drawn) [Compound 274, (3S,10R,13S)-17-(5-fluoropyridin-3-yl)-10,13-dimethyl-2,3,4,7,8,9,10,11,12,13,14,15-dodecahydro-1H-cyclopenta[a]phenanthren-3-ol] |  |  | > 50 |  |  |  | < 11 | > 50
C[C@]12CC[C@H](O)CC1=CCC1C2CC[C@]2(C)C(c3ccc(F)nc3)=CCC12 (stereo partly drawn) [Compound 276, (3S,10R,13S)-17-(6-fluoropyridin-3-yl)-10,13-dimethyl-2,3,4,7,8,9,10,11,12,13,14,15-dodecahydro-1H-cyclopenta[a]phenanthren-3-ol] |  |  | 1 to 50 |  |  |  | > 25 | 10 to 50
C[C@]12CC[C@H](O)CC1=CCC1C2CC[C@]2(C)C(c3cncc(Cl)c3)=CCC12 (stereo partly drawn) [Compound 280, (3S,10R,13S)-17-(5-chloropyridin-3-yl)-10,13-dimethyl-2,3,4,7,8,9,10,11,12,13,14,15-dodecahydro-1H-cyclopenta[a]phenanthren-3-ol] |  |  | 1 to 50 |  |  |  | < 11 | > 50
C[C@]12CC[C@H](O)CC1=CCC1C2CC[C@]2(C)C(c3cncc(N)c3)=CCC12 (stereo partly drawn) [Compound 283, (3S,10R,13S)-17-(5-aminopyridin-3-yl)-10,13-dimethyl-2,3,4,7,8,9,10,11,12,13,14,15-dodecahydro-1H-cyclopenta[a]phenanthren-3-ol] |  |  | > 50 |  |  |  | < 11 | > 50
CC1(C)C2=CCC3C4=CC=C(c5cccnc5)[C@@]4(C)CCC3[C@@]2(C)CCC1O (stereo partly drawn) [Compound 298, (10R,13S)-4,4,10,13-tetramethyl-17-(pyridin-3-yl)-2,3,4,7,8,9,10,11,12,13-decahydro-1H-cyclopenta[a]phenanthren-3-ol] |  |  | 1 to 50 | > 25 | 10 to 50 |  |  | 
C[C@]12CCC3C(CC(F)[C@]4(O)C[C@@H](O)CC[C@]34C)C1CC=C2c1cccnc1 (stereo partly drawn) [Compound 322, (3S,5S,10R,13S)-6-fluoro-10,13-dimethyl-17-(pyridin-3-yl)-2,3,4,5,6,7,8,9,10,11,12,13,14,15-tetradecahydro-1H-cyclopenta[a]phenanthrene-3,5-diol] |  |  | 1 to 50 |  |  |  | < 11 | > 50
C[C@]12CCC3C(CC(F)[C@@]4(O)C[C@@H](O)CC[C@]34C)C1CC=C2c1cccnc1 (stereo partly drawn) [Compound 323, (3S,5R,10R,13S)-6-fluoro-10,13-dimethyl-17-(pyridin-3-yl)-2,3,4,5,6,7,8,9,10,11,12,13,14,15-tetradecahydro-1H-cyclopenta[a]phenanthrene-3,5-diol] |  |  | 1 to 50 |  |  |  | < 11 | > 50
CC(=O)N[C@@H]1CC[C@@]2(C)C(=CC[C@@H]3[C@@H]2CC[C@]2(C)C(c4cncc(F)c4)=CC[C@@H]32)C1 [Compound 427, N-((3R,10R,13S)-17-(5-fluoropyridin-3-yl)-10,13-dimethyl-2,3,4,7,8,9,10,11,12,13,14,15-dodecahydro-1H-cyclopenta[a]phenanthren-3-yl)acetamide] |  |  | 1 to 50 |  |  |  | < 11 | > 50
C#C[C@]1(O)CC[C@@]2(C)C(CCC3C2CC[C@]2(C)C(c4cccnc4)=CCC32)C1 (stereo partly drawn) [Compound 474, (3S,10S,13S)-3-ethynyl-10,13-dimethyl-17-(pyridin-3-yl)-2,3,4,5,6,7,8,9,10,11,12,13,14,15-tetradecahydro-1H-cyclopenta[a]phenanthren-3-ol] |  |  | > 50 | > 25 | 10 to 50 |  |  | 
CC(=O)N[C@@H]1CC[C@@]2(C)C(=CCC3C2CC[C@]2(C)C(c4cncc(C(F)F)c4)=CCC32)C1 (stereo partly drawn) [Compound 480, N-((3R,10R,13S)-17-(5-(difluoromethyl)pyridin-3-yl)-10,13-dimethyl-2,3,4,7,8,9,10,11,12,13,14,15-dodecahydro-1H-cyclopenta[a]phenanthren-3-yl)acetamide] |  |  | 1 to 50 |  |  |  | < 11 | > 50
